This is an account of results in US12612622B2, “Targeted mutagenesis using base editors” (Qi Biodesign Biotechnology Company Limited, priority 2018, dated 2026).

The subject of the series is OsACCase gene. Briefly: Base editing (pZRH-PBE + individual sgRNAs) of OsACCase functional domain in transgenic M0 rice plants. The series is classed as in vivo. As to conditions: for Frequency of indel (%) / Frequency of substitution (%) / No. of WT / No. of indel / No. of substitution: transgenic M0 plants; for No. of WT / No. of indel / No. of substitution: per sgRNA target. The source says:
For individual cloning, the following method is used. APOBEC1, partial nCas9 and UGI sequences (SEQ ID NO: 129) without BsaI were synthesized commercially (GenScript, Nanjing, China) and cloned into the pUC57 (SEQ ID NO: 130) as intermediate vector. […] The full length APOBEC1-nCas9-UGI was excised using XmaJI and SacI, then was subcloned into pHUE411 that had been digested using the same two enzymes. The resultant vector pZRH-PBE (SEQ ID NO: 133) was used to construct sgRNA expression plasmids using restriction enzyme site BsaI.

Where [1] appears, read: edited allele with the substitution of the same table line.

As for “R29: sgRNA in pZRH-PBE; OsACCase target site CAAACTATCCCTGCTGACCCTGG (SEQ ID NO: 94) (expressed or natural sequence; target site or template, no part of the molecule)”, the “Frequency of indel (%)” value is recorded as 12.0%, the “Frequency of substitution (%)” value is 60.0%, the “No. of WT” value is given as 7 and the No. of indel is reported as 3. The No. of substitution was 15. Further, the No. of alleles (unedited target site sequence) turned out to be 8.
With “R31: sgRNA in pZRH-PBE; OsACCase target site GACTGCAAAAGGCAATGTTCTGG (SEQ ID NO: 102) (expressed or natural sequence; target site or template, no part of the molecule)”, the “Frequency of indel (%)” value is 0.0%, the “Frequency of substitution (%)” value is 5.9%, the “No. of WT” value is on record as 16 and the No. of indel is reported as 0. Moreover, the No. of substitution is on record as 1. Besides, the No. of alleles under setting [1] is reported as 1. In addition, the No. of alleles (unedited target site sequence) stood at 1.
In the case of “R36: sgRNA in pZRH-PBE; OsACCase target site CCTCGAGCGGCTATCCGTGGTGT (SEQ ID NO: 115) (expressed or natural sequence; the letters are possibly those of the target site)”, the “Frequency of indel (%)” value is recorded as 0.0%, the “Frequency of substitution (%)” value worked out at 35.7%, the “No. of WT” value came to 9 and the No. of indel is 0. Further, the No. of substitution came to 5. Moreover, the No. of alleles under setting [1] was 1. Moreover, the No. of alleles (unedited target site sequence) is reported as 3.
With “R22: sgRNA in pZRH-PBE; OsACCase target site ACTGTTTCAGATGACCTTGAAGG (SEQ ID NO: 79) (expressed or natural sequence; the letters are possibly those of the target site)”, the “Frequency of indel (%)” value is reported as 0.0%, the “Frequency of substitution (%)” value came to 18.8%, the “No. of WT” value worked out at 13 and the No. of indel came to 0. Also, the No. of substitution stood at 3. For the same substance, under setting [1], the No. of alleles is listed as 4. Moreover, the No. of alleles (unedited target site sequence) is given as 2.
“R28: sgRNA in pZRH-PBE; OsACCase target site GTTACTGGCAGAGCAAAGCTTGG (SEQ ID NO: 92) (expressed or natural sequence; target site or template, no part of the molecule)”: the “Frequency of indel (%)” value stood at 14.3%, the “Frequency of substitution (%)” value is reported as 42.9%, the “No. of WT” value was 3 and the No. of indel was found to be 1. Moreover, the No. of substitution is listed as 3. Besides, the No. of alleles under setting [1] stood at 6. Further, the No. of alleles (unedited target site sequence) came to 0.
In the case of “R23: sgRNA in pZRH-PBE; OsACCase target site GCGTTTCTAATATATTGAGGTGG (SEQ ID NO: 81) (expressed or natural sequence; target site or template, no part of the molecule)”, the “Frequency of indel (%)” value is given as 0.0%, the “Frequency of substitution (%)” value is on record as 22.2%, the “No. of WT” value turned out to be 21 and the No. of indel was 0. The No. of substitution is 6. Also, the No. of alleles under setting [1] was 9. Further, under “unedited target site sequence”, the No. of alleles was determined as 3.
For the substance “R26: sgRNA in pZRH-PBE; OsACCase target site AACAACACCGTTGGACCCACCGG (SEQ ID NO: 88) (expressed or natural sequence; target site or template, no part of the molecule)”, the “Frequency of indel (%)” value turned out to be 0.0%, the “Frequency of substitution (%)” value is 71.4%, the “No. of WT” value was found to be 2 and the No. of indel is recorded as 0. In addition, the No. of substitution is reported as 5. Besides, the No. of alleles under setting [1] was determined as 4. The No. of alleles (unedited target site sequence) is given as 4.
